In a melting point compilation (Tetko et al.; mined from patent text by program, amines drawn as free bases though some values may be those of a salt):

melting point | Compound
143 °C | Clc1ccc(C2CN3C(=N2)Sc2ccccc23)cc1 (stereo unspecified)
172 to 175 °C | c1ccc(-c2nn3c(c2-c2nc4ccccc4[nH]2)CCC3)nc1
304 °C | CCCn1c(=O)[nH]c2ccc(C(=O)c3ncc4ccccn34)cc2c1=O
160 °C | N#Cc1c(N2CCN(CCCCCC(=O)N3Cc4ccccc4C3)CC2)cccc1C(F)(F)F
226 to 227 °C | O=C1COc2ccc(C3=Cc4ccccc4SC3c3ccccc3)cc2N1 (stereo unspecified)
150 to 151 °C | CC(C)CCn1cc(C2CCN(CCOc3ccccc3C(=O)O)CC2)c2ccccc21
132 to 134 °C | ON=Cc1cc(Br)ccc1OCc1ccccc1
185 to 187 °C | OCc1c(-c2ccccc2)nn2c1-c1ccccc1CC2
161 to 162 °C | CCN(CC)CC(=O)N1c2ccccc2N(C)S(=O)(=O)c2ccccc21
68 to 73 °C | Cc1c(-c2ccccc2)oc2c(C(=O)OCCN3CCOCC3)cc(Cl)cc2c1=O
105 to 109 °C | CCc1cccc(C)c1CNc1ccnc2c1nc(C)n2C
227 to 230 °C | Cc1cc(Cc2ccc(NC(=O)N(C)C)cn2)n(C)c1C(=O)c1ccc(Cl)cc1
112 to 116 °C | COc1cc(OC)c(N2CCCC2)cc1/C=C/C(=O)c1ccc(S(=O)(=O)NCc2ccccn2)cc1
> 300 °C | O=c1[nH]c2c(c3ccccc13)c1cc(Cl)ccc1n2CC1CC1
93 to 94 °C | COc1ccc(CNCC(O)c2ccccc2)cc1OC (stereo unspecified)
180 °C | CNc1cc(Oc2ccc3c(c2)OCCN3C(=O)Nc2cccc(C(F)(F)F)c2)ncn1
174 to 177 °C | O=C(N(CCN(C(=O)C(F)(F)F)c1cccc2[nH]ccc12)Cc1ccccc1)C(F)(F)F
155 to 157 °C | CCCCn1c(=O)c2c(ncn2S(=O)(=O)c2ccc(N(OC(C)=O)C(C)=O)cc2)n(CCCC)c1=O
100 to 104 °C | COC1OCC[C@@H]1NC(=O)[C@H](CC(C)C)NC(=O)CNC(=O)C(C)(C)Oc1ccc2c(c1)Nc1ccccc1S2 (stereo partly specified)
79 to 84 °C | CCOC(=O)[C@H](CCSCC)NC(=O)C(CSC(C)=O)Cc1ccccc1 (stereo partly specified)
203 to 205 °C | CC(C)Nc1cc(=O)n(-c2ccccc2)nc1-c1nc[nH]n1
180 to 182 °C | O=C(NCC1Cc2cc(Br)cc3[nH]c(=O)c(=O)n1c23)c1ccccc1 (stereo unspecified)

melting point | Compound
170 to 173 °C | Cc1cn(Cc2ccccc2)c(=O)[nH]c1=O
127 to 130 °C | CN(C)Cc1cc2ccc(-c3nnc(CSCCOc4ccccc4)o3)cc2n1S(C)(=O)=O
> 320 °C | O=C(O)c1ccc2nc3c(c(=O)n2c1)CCC3=Cc1cccc(O)c1
69 to 72 °C | CCOC(=O)C(CCCCOc1ccccc1)C(=O)O (stereo unspecified)
175 to 178 °C | CC(C)[C@H](NC(=O)OCc1cccnc1)C(=O)N[C@@H](Cc1ccccc1)[C@@H](O)[C@@H](O)[C@H](Cc1ccccc1)NC(=O)OC(C)(C)C
201 to 202 °C | CC(Oc1ccc2c(=O)c(-c3ccccc3)coc2c1)C(=O)O (stereo unspecified)
176 to 178 °C | O=c1[nH]c(C2CCCN(Cc3ccccc3)C2)cc2ccccc12 (stereo unspecified)
139 to 140 °C | CCCC(=O)Cc1ccc(C(=O)Nc2ccc3cc(CN4CCCC4)cnc3c2C)cc1
175 °C | O=C(NCO)C(Nc1ccccc1[N+](=O)[O-])c1c(Cl)cccc1Cl (stereo unspecified)
267 to 268 °C | CCCC(=O)N1CCc2cc(S(=O)(=O)N3CCN(c4cccc(Cl)c4)CC3)ccc21
> 275 °C | CCOC(=O)Nc1nc(-c2ccccc2)c(-c2nc3ccccc3c(=O)n2-c2ccc(Cl)cc2)s1
83 to 84 °C | Fc1ccc(COc2ncc(F)c(NCc3ccccc3F)n2)cc1
183 to 185 °C | CC1(C)CCN(C(=O)Nc2cccnc2)c2cc(C#N)ccc21
101 to 103 °C | COc1cccc(/C(=C/C=C/C(=O)Oc2ccc([N+](=O)[O-])cc2)c2ccccc2)c1
93 to 94 °C | CC(O)(c1ccccc1)c1cc(Cl)ccc1N (stereo unspecified)
123 to 124 °C | CCC(O)(c1ccccc1)c1cc(OC)c(OC)c(OC)c1 (stereo unspecified)
85 °C | Brc1ccc(-c2coc(-c3ccccn3)n2)cn1
167 to 169 °C | N#Cc1ncn2c1N(C(=O)CN1CCN(Cc3ccccc3)CC1)CC=C2c1cccc(C(F)(F)F)c1
133 to 135 °C | CC(C)(C)OC(=O)N1CCN2C(=O)OC(c3ccccc3)C2C1 (stereo unspecified)
117 to 118 °C | CN1CCC(Nc2ccccc2C(=N)c2ccccc2)CC1
262 °C | CCOC(=O)CC[C@H](NC(=O)c1ccc(NCc2cnc3nc(N)nc(N)c3c2)cc1)C(=O)OCC
80 to 82 °C | CCCCN(C)CCc1ccc(Nc2ncc3c(n2)-c2ccccc2C(c2ccccc2C(F)(F)F)C3)cc1 (stereo unspecified)

The remaining lines, values behind:

Compound | melting point
CCCCc1nc2c(N)nc3cccnc3c2n1CCNC(=O)OC(C)(C)C | 118 to 120 °C
C[C@H]1COc2c(C#N)cccc2C(=O)N(C[C@@H](CCN)c2ccc(Cl)c(Cl)c2)C1 | 82 to 128 °C
OCc1ccc2c(c1)C=C(n1ccnc1)CC2 | 88 to 91 °C
COc1ccc(C=C(C)[N+](=O)[O-])c(OC)c1 | 80 to 81 °C
CS(=O)(=O)Nc1ccc(C(=O)N[C@@H](Cc2ccc(-c3ccccc3C(F)(F)F)cc2)C(=O)O)c(Cl)c1 | 114 °C
CCOC(=O)c1csnc1-c1ccc(OC)c(OC)c1 | 74 to 75.5 °C
C#CCn1c(=O)ccc2cc(F)c(-n3c(=O)cc(C(F)(F)F)n(C)c3=O)cc21 | 236 to 238 °C
Cc1oc2cc(CO)ccc2c1C | 78 to 79 °C
CCOC(=O)C=C(Nc1ccc(O)c(=O)cc1)C(=O)OCC | 108 °C
CCCCCS(=O)(=O)NC(=O)CCc1cc(C2CC2)nn1Cc1ccc(C(F)(F)F)cc1Cl | 152 to 154 °C
CCOC(=O)c1cn(C(C)(C)C)c2nc(N3CC[C@H](N)C3)c(F)cc2c1=O | 255 °C
CCC1c2cc(OC)c(OC)cc2C(c2ccc(OC)c(OC)c2)=NNC1C (stereo unspecified) | 120 to 122 °C
CCCC(O)(Cn1nc[nH]c1=S)c1ccc(Cl)cc1Cl (stereo unspecified) | 148 °C
CCc1ccc(C(=O)C(=O)O)[nH]1 | 126 to 128 °C
O=C(Nc1ccc(-n2nc(C(F)(F)F)cc2C(F)(F)F)cc1)C1CCCCCC1 | 174 to 175 °C
COc1cc2ncc3c(N)nc(C)cc3c2cc1OC | 244 to 248 °C
Cc1cc(OC(=S)N(C)C)c(C(C)(C)C)cc1C=O | 79.5 to 81 °C
CC(NC(Nc1cccnc1)=C(C#N)S(=O)(=O)c1ccc(Cl)cc1)C(C)(C)C (stereo unspecified) | 172 to 174 °C
COc1ccc(C[C@H](Nc2nc3ccc(Cl)cc3cc2C(=O)O)C(=O)O)cc1 | 155 to 158 °C

Compound | melting point
N#CC1=C(Nc2ccc(F)cc2)CCC1 | 100 to 102 °C
COC(=O)C1=C(C)NC(C)=C(C(=O)OCC2CC2)C1c1cccc([N+](=O)[O-])c1 (stereo unspecified) | 160 to 163 °C
CNC(CNC(=O)c1nc(Cl)c(N)nc1N)CC(=O)NCCN (stereo unspecified) | 106 to 109 °C
Cn1cc(-c2cc3cccnc3[nH]2)c2ccc(C(=O)Nc3nc[nH]n3)cc21 | 343 to 345 °C
C#CCC1(c2ccc(Cl)cc2)Cc2cc(OCC(=O)O)c(Cl)c(Cl)c2C1=O (stereo unspecified) | 200 to 201 °C
CCOC(=O)C1=NNC(C)=C(C(=O)OC)C1c1cccc([N+](=O)[O-])c1 (stereo unspecified) | 174 °C
CCOC(=O)c1cnc2c(c1Cl)CN(C(=O)OCC)CC2 | 231 to 233 °C
CCOC(=O)c1c(-c2cccc(C)c2)oc(Cl)c(Cl)c1=O | 113 °C
O=C(Nc1cnc2sc3c(c2c1-c1ccccc1Cl)CCC3)c1ccc(F)cc1F | 219 to 220 °C
CCc1ccc(Nc2c(-c3nnc(NCCO)o3)ccc(F)c2F)c(F)c1 | 100 to 103 °C
O=S(=O)(O)CCNCCO | 180 to 183 °C
COc1c(NCc2cccc(C)c2)cc2oc(=O)[nH]c2c1F | 160 to 161 °C
CC1CN(c2ccc(N)cc2Cl)C(=O)O1 (stereo unspecified) | 140 to 141 °C
CNC(=O)C(=NOC)c1ccccn1 | 132 to 133 °C
CC(C(=O)O)c1ccc(N=c2sccn2C)cc1 (stereo unspecified) | 130 to 132 °C
CCOC(=O)c1c(CN2CCCCC2)nc2cc3c(cc2c1-c1ccc(OC)c(OC)c1)OCCO3 | 158 to 160 °C
COC(=O)NC(C)(C(=O)NS(=O)(=O)c1ccc(C)cc1)C(C)C (stereo unspecified) | 120 to 122 °C
COC(=O)c1ccc(S(C)(=O)=O)c(CC#N)c1Cl | 151 to 155 °C
COC(=O)c1cc(C(=O)c2c(C)c(NS(=O)(=O)c3cccc(OC)c3)c3ccccn23)ccc1NC(=O)C(F)(F)F | 220 °C

Compound | melting point
OCCNCCOc1ccc(C2=C(c3ccccc3)CCCc3cc(O)ccc32)cc1 | 176 to 178 °C
COc1cc(/C(C#N)=C\c2ccc(C)c(N)c2)cc(OC)c1OC | 161 to 162 °C
COc1ccc(O)cc1CCc1ccc2nc[nH]c(=O)c2c1 | 221 to 224 °C
CC(C)(C)c1cc2c(c(C(C)(C)C)c1)O[Si](C)(C)Oc1c-2cc(C(C)(C)C)cc1C(C)(C)C | 170 to 176 °C
CC1CCCN1Cc1ccc(N/C=C2\C(=O)NC(=O)c3ccc(I)cc32)cc1 (stereo unspecified) | 157 to 158 °C
Cc1cc(Oc2ncc(C(F)(F)F)cc2Cl)nn1C(=O)NCCCl | 98 to 100 °C
O=C(/C=C/c1c[nH]cn1)Oc1ccc([N+](=O)[O-])cc1 | 220 to 222 °C
CCCCCCCNCc1cccc(OCCCNc2nc(N)nn2C)c1 | 64 to 65 °C
CN1C(=O)C(=O)c2cccnc21 | 162 to 163 °C
CCC(=Cc1ccc(N(C)C)cc1Cl)[N+](=O)[O-] | 90 to 91 °C
Cc1nc2c(n1C(=O)OC(C)(C)C)CCCC2=O | 126 °C
CCOC(=O)C(=O)Nc1c([N+](=O)[O-])ccc2c1CCCC2 | 121 to 122 °C
COC(=O)c1cc2ccc3[nH]ccc3c2[nH]1 | 183 to 184 °C
O=C(Nc1ccccn1)c1cnc2c(c1O)CCCC2 | > 300 °C
CON=Cc1c[nH]c(-c2ccc(F)cc2)c1-c1ccncc1 | 242 to 248 °C
COc1cc2ncnc(N3CCC(C(C)CN4CCCS4(=O)=O)CC3)c2cc1OC (stereo unspecified) | 129 to 131 °C
Cc1cc(S)n2nc(C(=O)O)nc2n1 | 215 to 217 °C
CC1(C)OC(=S)Nc2ccc(-c3cc(F)cc(Cl)c3)cc21 | 204 to 205 °C
O=c1oc2c(ccc3ccccc32)c2c1CNCC2 | 227 to 230 °C
